Laboratory results published in article PMC6576746, “Rational discovery of dual-indication multi-target PDE/Kinase inhibitor for precision anti-cancer therapy using structural systems pharmacology” (PLoS Computational Biology, 2019).

Experiments:
Test in all cases: cells
Set-up in all cases: species or system panel of human cancer cell lines; Eurofins OncoPanel proliferation; nuclei count by high-content fluorescence imaging, 10-point dose response
L-428 = conditions: Homo sapiens, L-428, 72 h, cell count, 3 days
Method: (§1) OncoPanel cancer cell proliferation assay was performed by Eurofins Panlabs, Inc. (Missouri, USA). Cancer cells were grown in RPMI 1640, 10% FBS, 2 mM L-alanyl-L-glutamine, 1 mM Na pyruvate, or a special medium. Cells were seeded into 384-well plates and incubated in a humidified atmosphere of 5% CO2 at 37°C. Compounds were added the day following cell seeding. At the same time, a time zero untreated cell plate was generated. After a 3-day incubation period, cells were fixed and stained to allow fluorescence imaging of nuclei. Levosimendan was serially diluted in half-log steps from 100 μM and assayed over 10 concentrations with a maximum assay concentration of 0.1% DMSO. Automated fluorescence microscopy was carried out using a Molecular Devices ImageXpress Micro XL high-content imager, and images were collected with a 4X objective. 16-bit TIFF images were acquired and analyzed with MetaXpress 5.1.0.41 software. Cell count EC50 is the test concentration at the curve inflection point (parameter C), or half the effective response. IC50 is the test compound concentration at 50% of the maximum possible response. GI50 is the concentration needed to reduce the observed growth by half (midway between the relative cell count at the curve maximum and at the time of compound addition). Activity area is an estimate of the integrated area above the response curve. Activity area values range from 0–10, where a value of zero indicates no inhibition of proliferation at all concentrations, and a value of 10 indicates complete inhibition of proliferation at all concentrations.

H9 = conditions: Homo sapiens, H9, 72 h, cell count, 3 days
Method: as §1

DOHH-2 = conditions: Homo sapiens, DOHH-2, 72 h, cell count, 3 days
Method: as §1

Daoy = conditions: Homo sapiens, Daoy, 72 h, cell count, 3 days
Method: as §1

MC116 = conditions: Homo sapiens, MC116, 72 h, cell count, 3 days
Method: as §1

5637 = conditions: 72 h, cell count, 3 days
Method: as §1

SW480 = conditions: Homo sapiens, SW480, 72 h, cell count, 3 days
Method: as §1

NCIH441 = conditions: Homo sapiens, NCI-H441, 72 h, cell count, 3 days
Method: as §1

Hs 683 = conditions: Homo sapiens, Hs 683, 72 h, cell count, 3 days
Method: as §1

HCT-8 = conditions: Homo sapiens, HCT-8, 72 h, cell count, 3 days
Method: as §1

BxPC-3 = conditions: Homo sapiens, BXPC-3, 72 h, cell count, 3 days
Method: as §1

G-401 = conditions: Homo sapiens, G-401, 72 h, cell count, 3 days
Method: as §1

Raji = conditions: Homo sapiens, Raji, 72 h, cell count, 3 days
Method: as §1

LS123 = conditions: Homo sapiens, LS-123, 72 h, cell count, 3 days
Method: as §1

[1] = 50% of maximum possible response

C[C@@H]1CC(=O)NN=C1c1ccc(NN=C(C#N)C#N)cc1 [levosimendan]
IC50 (L-428; [1]): 69.2 µM | GI50 (L-428; corrected for time zero): 53.1 µM | EC50 (L-428; curve inflection point): 69.2 µM | IC50 (H9; [1]): 5.4 µM | GI50 (H9; corrected for time zero): 4.31 µM | EC50 (H9; curve inflection point): 4.92 µM | IC50 (DOHH-2; [1]): 15.8 µM | GI50 (DOHH-2; corrected for time zero): 14.4 µM | EC50 (DOHH-2; curve inflection point): 15.8 µM | IC50 (Daoy; [1]): 16.7 µM | GI50 (Daoy; corrected for time zero): 13 µM | EC50 (Daoy; curve inflection point): 16.7 µM | IC50 (MC116; [1]): 14.9 µM | GI50 (MC116; corrected for time zero): 13.8 µM | EC50 (MC116; curve inflection point): 14.7 µM | IC50 5637; [1]: 64.7 µM | GI50 (5637; corrected for time zero): 53.5 µM | EC50 (5637; curve inflection point): 64.7 µM | IC50 (SW480; [1]): 15.3 µM | GI50 (SW480; corrected for time zero): 10.8 µM | EC50 (SW480; curve inflection point): 13.1 µM | IC50 (NCIH441; [1]): > 100 µM | GI50 (NCIH441; corrected for time zero): 31.9 µM | EC50 (NCIH441; curve inflection point): > 100 µM | IC50 (Hs 683; [1]): > 100 µM | GI50 (Hs 683; corrected for time zero): > 100 µM | EC50 (Hs 683; curve inflection point): 51.2 µM | IC50 (HCT-8; [1]): 23.9 µM | GI50 (HCT-8; corrected for time zero): 23.3 µM | EC50 (HCT-8; curve inflection point): 23.2 µM | IC50 (BxPC-3; [1]): 89.2 µM | GI50 (BxPC-3; corrected for time zero): 78 µM | EC50 (BxPC-3; curve inflection point): 89.2 µM | IC50 (G-401; [1]): 5.47 µM | GI50 (G-401; corrected for time zero): 4.83 µM | EC50 (G-401; curve inflection point): 5.34 µM | IC50 (Raji; [1]): 69.1 µM | GI50 (Raji; corrected for time zero): 63.4 µM | EC50 (Raji; curve inflection point): 69.1 µM | IC50 (LS123; [1]): 53.3 µM | GI50 (LS123; corrected for time zero): 22 µM | EC50 (LS123; curve inflection point): 43.8 µM
